From patent US20070015813A1, “Treatment of protein folding disorders” (QUEEN'S UNIVERSITY AT KINGSTON, priority 2005, published 2007)
Each block holds one compound with its values, some of them ahead of it.

How the values were obtained:
[1] = target: T1, Aβ1-42 (Homo sapiens, UniProt P05067); assay: Kinetic Thioflavin T (ThT) aggregation assay of Aβ1-42; type: biochemical; settings: 20 μM Aβ1-42, kinetic ThT assay
T1 construct: Aβ^1-42 (AnaSpec, lot 45685); purchased AnaSpec
Experimental: Aβ^1-42 (1.0 mg) was either pretreated with HFIP in the same manner as Aβ^1-40 or this step was omitted. After removing HFIP, when appropriate, Aβ^1-42 was dissolved in 1% NH3 (aq.) (200 μL) and sonicated for 1 min. The solution was diluted with Tris-HCl (5.7 mL, 20 mM, pH 7.4), the pH adjusted to 7.4 with concentrated HCl (aq.) and the solution filtered using a syringe filter (0.2 μm). Prior to use in the ThT aggregation assay, the solution was diluted with an equal volume of 8 μM Thioflavin T (ThT) in Tris-HCl (20 mM, pH 7.4, 300 mM NaCl).
(§1) Aliquots (200 μL) of Aβ^1-40, Aβ^1-42, tau441 or α-synuclein with ThT or ThS were added to wells of a black polystyrene 96-well plate, followed by 2 μL of a compound in DMSO (various concentrations), or DMSO alone (controls). For α-synuclein, sodium dodecyl sulfate solution (2.0 μL, 30 mM) was also added to each well to induce aggregation. Incubations were performed in triplicate and were taken to contain 20 μM Aβ^1-40 or Aβ^1-42, 6 μM tau441 or 4 μM α-synuclein. Plates were covered with clear polystyrene lids and incubated at 37° C. in a GENios microplate reader obtained from Tecan Group Limited, Mannedorf, Zurich. For Aβ^1-40, tau441 and α-synuclein, fluorescence readings (λex=450 nm, λem=480 nm) were taken every 15 min., after first shaking at high intensity for 15 sec. and allowing to settle for 10 sec. before each reading. For Aβ^1-42, readings were taken every 5 min.
(§2) The absorbance of each compound was measured under the conditions used during testing, though on ten times the scale (2 mL), to ensure no significant quenching interfered with the assay. This step was also used to identify whether compounds were completely soluble under testing conditions.
FIG. 7 depicts inhibition of Aβ^1-42 aggregation by various synthesized bi-aromatic compounds and positive controls morin (Ono K, Yoshiike Y, Takashima A, Hasegawa K, Naiki H, Yamada M. 2003. J Neurochem 87:172-81) and RS-0406 (Walsh D M, Townsend M, Podlisny M B, Shankar G M, Fadeeva J V, Agnaf O E, Hartley D M, Selkoe D J. 2005. J Neurosci 25:2455-62) in the kinetic ThT assay. Same conditions as for Aβ^1-40, FIG. 1. Compound concentrations were 100 μM in (A), 20 μM in (B), except for RS-0406, which was tested at 100 μM, and 20 μM in (C).

[2] = target: T2, Aβ1-40 (Homo sapiens, UniProt P05067); assay: Circular dichroism studies of Aβ1-40; type: biochemical; settings: 40 μM Aβ1-40, 200 μM compound, pH 7.4, 37° C.
T2 construct: Aβ^1-40 (AnaSpec, San Jose, Calif., lots 14212, 34862 and 34889); purchased AnaSpec, San Jose, Calif
Experimental: Aliquots (220 μL) of pretreated Aβ^1-40 (40 μM in 20 mM Tris-HCl, pH 7.4) were added directly to 1 mm quartz circular dichroism (CD) cells, followed by 2.2 μL compound (of varying concentration) in methanol or methanol alone (controls). Solutions were incubated at 37° C. for up to 6 days. CD scans were performed on a J-810 spectropolarimeter (obtained from Jasco Corporation, Tokyo, Japan) between 190 and 250 nm, with a resolution of 0.1 nm and bandwidth of 1 nm. Ten scans were obtained for each reading. Spectra had background CD of the buffer subtracted and were left unsmoothed. Readings were performed at 37° C.
FIG. 6 depicts circular dichroism (CD) of Aβ^1-40 alone (A) and in the presence of 0j (B) and morin (C). Conditions: 40 μM Aβ^1-40, 200 μM compound (B,C), pH 7.4, Tris-HCl (20 mM), 1% MeOH. Prior to experiment, Aβ^1-40 pretreated with 1,1,1,3,3,3-hexafluoroisopropanol (HFIP).

[3] = target: T2, Aβ1-40; assay: Kinetic Thioflavin T (ThT) aggregation assay of Aβ1-40; type: biochemical; settings: 20 μM Aβ1-40, 4 μM ThT, pH 7.4, 37° C., kinetic ThT assay
Experimental: Aβ^1-40 (1.0 mg) was pre-treated in a 1.5 mL microfuge tube with 1,1,1,3,3,3-hexafluoroisopropanol (HFIP, 1 mL) and sonicated for 20 min. to disassemble any pre-formed Aβ aggregates. The HFIP was removed with a stream of argon and the Aβ dissolved in Tris base (5.8 mL, 20 mM, pH 10.5). The pH was adjusted to 7.4 with concentrated HCl and the solution filtered using a syringe filter (0.2 μm). This solution was used for circular dichroism studies or diluted with an equal volume of 8 μM Thioflavin T (ThT) in Tris-HCl (20 mM, pH 7.4, 300 mM NaCl) for the ThT aggregation assay.
as §1, §2
FIG. 1 depicts the inhibition of Aβ^1-40 aggregation, as measured by Thioflavin T (ThT) fluorescence, by directly-linked 3,3′-bis-indolyl compounds 0c-i (A), other bis-indoles (B), aza-indole-containing compounds (C), indole-phenols (D), indole-5-carboxylic acid-containing bi-aromatics (E), and naphthol-containing bi-aromatics (F). Aggregation conditions: 20 μM Aβ^1-40 incubated in covered black 96-well polystyrene microplates with 4 μM ThT, pH 7.4, Tris-HCl (20 mM), 150 mM NaCl, 1% DMSO. Compound concentrations are 200 μM (A,B, except where otherwise noted), 100 μM (E), 20 μM (F), or as indicated (C,D). Plates heated at 37° C. in Tecan Genios microplate reader. All incubations performed in triplicate. Prior to experiment, Aβ^1-40 pretreated with 1,1,1,3,3,3-hexafluoroisopropanol (HFIP). Fluorescence readings: fluorescence measured every 15 min. (λex=450 nm, λem=480 nm) after shaking for 15 sec. and pausing 10 sec. before taking measurement. Values are the mean of three replicates. Error bars, omitted for clarity in (B), represent standard deviation of the mean.

[4] = tested on: patients with mild to moderate Alzheimer's disease (AD); assay: Phase IV double-blind randomized placebo-controlled clinical trial of L-tryptophan (Trp); type: in vivo, human
Experimental: A phase IV clinical trial of L-tryptophan (Trp) was carried out to evaluate the amino acid's effect on cognitive abilities in patients with mild to moderate Alzheimer's disease (AD). An earlier trial has been performed which studied Trp administration in patients suffering from AD [Bentham, P W. International Clinical Psychopharmacology, 1990, 5: 261-72]. The present trial expects the possible binding of Trp to the HHQK region of Aβ [D Giulian et al. (1998). Journal of Biological Chemistry 273:29719-26] and subsequent disruption of Aβ plaque formation, whereas the earlier trial was based on neurotransmitter replacement therapy. By administering Trp, levels of its metabolite […], better known as serotonin, were expected to increase, thereby countering deficits of the neurotransmitter experienced by those suffering from AD [Siegel, G J; Agranoff, B W; Albers, R W; Molinoff, P B, Basic Neurochemistry. Fifth ed. 1994, New York: Raven Press, 1054 pp]. Also providing motivation for the trial may have been earlier accounts that Trp was seen to benefit elderly patients with mental disorders [Shaw, D M; Tidmarsh, S F; Karajgi, B M; Sweeney, E A; Williams, S; Elameer, M; Twining, C. British Journal of Psychiatry, 1981, 139: 580-2, Lehmann, J; Persson, S; Walinder, J; Wallin, L. Acta Psychiatrica Scandinavica, 1981, 64: 123-31].
Twelve patients were enrolled in the current clinical trial. Patients were administered 1 g Trp (n=8) or placebo (n=4) twice a day for six months, and their cognitive abilities were assessed, using standardized tests, at baseline, three months and six months. All enrollment and testing was carried out at the Kingston General Hospital, Kingston, Ontario, Canada, under the supervision of the principal investigator, D. F. Weaver, M.D., Ph.D (the protocol is attached as Appendix A). The primary endpoint of the double-blind trial was to determine whether patients receiving Trp outperformed the controls, either by experiencing an improvement in cognition or a reduction in deterioration in cognitive abilities relative to the placebo group.
Eligible participants were those who met the clinical criteria of probable Alzheimer's disease as described in the Diagnostic and Statistical Manual of Mental Disorders, fourth edition (DSM-IV) [Anonymous, Diagnostic and Statistical Manual of Mental Disorders, 4th Edition (DSM-IV). 1994, Washington, D.C.: American Psychiatric Association] and in the National Institute of Neurologic and Communicative Disorders and Stroke and the Alzheimer's Disease Related Disorders Association (NINCDS-ADRDA) [McKhann, G; Drachman, D; Folstein, M; Katzman, R; Price, D; Stadlan, E M. Neurology, 1984, 34: 939-44]. Inclusion criteria also included: mild to moderate severity of dementia, as reflected by a Mini-Mental State Examination (MMSE) [Folstein, M F; Folstein, S E; McHugh, P R. J Psychiatr Res, 1975, 12: 189-98] score of 14 to 26; minimum one-year duration of symptoms; minimum age of 50 years; living at home or in an institution provided they had caregivers capable of attending each clinic visit and ensuring the administration of medication; able to perform the psychometric tests required; reasonably good nutritional status; vital signs (blood pressure and heart rate in sitting and standing positions), urinalysis, physical examination, and neurological evaluation must yield results within normal limits or determined as not clinically significant by the study physician for the patient's age and sex.
This study was a 6-month, double-blind randomized trial in which eligible participants were randomly assigned to receive either Trp (1000 mg, twice daily) or an identical-appearing placebo. Recruiters were unaware of the assignment. […]

[5] = tested on: patients with advanced senile dementia; settings: daily Trp administration (24 mg/kg); cited from earlier work
[6] = tested on: patients suffering from AD; settings: ten patients, three months; cited from earlier work
[7] = tested on: patients with dementia; settings: one month, once daily dosing, ratings of behaviour and functional abilities; cited from earlier work
[8] = Trp 1 g twice a day (n = 8), 6 months, negative change indicates improvement
[9] = Trp 1 g twice a day (n = 8), 6 months, positive change indicates improvement
[10] = Trp (n = 8) vs. placebo (n = 4), 3 months
[11] = Trp (n = 8) vs. placebo (n = 4), 6 months

T2 sequence (P05067 672-711 limits assumed): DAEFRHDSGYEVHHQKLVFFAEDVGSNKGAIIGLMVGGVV
T1 sequence (P05067 672-713 limits assumed): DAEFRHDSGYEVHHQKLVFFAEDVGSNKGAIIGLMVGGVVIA

inhibition of Aβ1-42 aggregation, as measured by ThT fluorescence [1]: inhibiting aggregation | random coil (RC)→β-sheet transition of Aβ1-40 by circular dichroism [2]: inhibited to a greater extent | inhibition of Aβ1-40 aggregation, as measured by Thioflavin T (ThT) fluorescence [3]: inhibition
SMILES: O=C(O)c1ccc2[nH]cc(-c3c[nH]c4ccc(O)cc34)c2c1 [0j, 3-(5-Hydroxy-indol-3-yl)-indole-5-carboxylic Acid]

SMILES: N[C@@H](Cc1c[nH]c2ccccc12)C(=O)O [Trp, L-tryptophan]
ADAS-Cog, mean (SE) change from baseline after 3 months ([4]; Trp 1 g twice a day (n = 8), 3 months, negative change indicates improvement): −0.8 (0.9) | MMSE, mean (SE) change from baseline after 3 months ([4]; Trp 1 g twice a day (n = 8), 3 months, positive change indicates improvement): 0.8 (0.4) | ADAS-Cog, mean (SE) change from baseline after 6 months [4, 8]: −2.8 (1.4) | FAQ, mean (SE) change from baseline after 6 months [4, 8]: 3.2 (2.0) | NPI, mean (SE) change from baseline after 6 months [4, 8]: 3 (3) | Clock-drawing, mean (SE) change from baseline after 6 months [4, 9]: 1.1 (0.4) | DAD, mean (SE) change from baseline after 6 months [4, 9]: 1.5 (1.8) | MMSE, mean (SE) change from baseline after 6 months [4, 9]: 1.8 (0.5) | ADCS-CGIC, mean (SE) score at 6 months ([4]; Trp 1 g twice a day (n = 8), score at 6 months, not change from baseline, lower score indicates improvement): 3.6 (0.3) | adverse events reported by patients ([4]; Trp 1 g twice a day, 6 months): No adverse events | ADAS-Cog, treatment difference (Trp vs. placebo) after 3 months [4, 10]: 1.3 | MMSE, treatment difference (Trp vs. placebo) after 3 months [4, 10]: 2.0 | ADAS-Cog, treatment difference (Trp vs. placebo) after 6 months [4, 11]: −6.3 | ADCS-CGIC, treatment difference (Trp vs. placebo) at 6 months [4, 11]: 2.9 | Clock-drawing, treatment difference (Trp vs. placebo) after 6 months [4, 11]: 2.9 | DAD, treatment difference (Trp vs. placebo) after 6 months [4, 11]: 12.8 | FAQ, treatment difference (Trp vs. placebo) after 6 months [4, 11]: −2.0 | MMSE, treatment difference (Trp vs. placebo) after 6 months [4, 11]: 5.0 | NPI, treatment difference (Trp vs. placebo) after 6 months [4, 11]: −19 | patients depressed (Cornell Depression Index score of >5) after 6 months of treatment ([4]; Trp group (two patients), 6 months): 25% | sleep problems (score of >4 on the Pittsburgh Sleep Quality) ([4]; at baseline or at 6 months): No sleep problems | patients with “unequivocal improvement in blind global assessment” [5]: six of 29 | correlation between the increase in Trp plasma levels and the increase in cognitive test scores [6]: statistically significant correlation | benefit in patients with dementia [7]: of no benefit
